The values below come from patent publication US20110070326A1, “OREGANO EXTRACT AND ITS COMPONENTS FOR ENHANCING VIGILANCE” (DSM IP ASSETS B.V., priority 2006, published 2011).

As a reminder, the IC50 is the concentration at which inhibition is half-maximal.

The test system of experiment [1] is mice. In words: Porsolt's Forced Swim Test (Behavioral Despair Test), i.p. It counts as in vivo, mouse. The conditions noted are these: 32 mg/kg i.p., −30 min; 15 mice. The method, then:
The test, which detects antidepressant activity, was carried out as described by Porsolt et al supra. Mice which are forced to swim in a situation from which they cannot escape rapidly become immobile. Antidepressants decrease the duration of immobility.
Mice were individually placed in cylinders (Height=24 cm, Diameter=13 cm) containing 10 cm water (22° C.) from which they could not escape. The mice were placed in the water for 6 minutes and the duration of immobility during the last 4 minutes was measured.
15 mice were studied per each of the four groups.
Oregano extract 1 was evaluated at 3 doses (10, 30 and 60 mg/kg), administered i.p. 30 minutes before the test, and compared with a control group, administered vehicle in the same manner. The thus administered […] was dissolved in vehicle (saline solution containing 3% (v/v) DMSO and 3% (v/v) Tween® 80). Venlafaxine (16 mg/kg, i.p.), as comparison substance, and imipramine (32 mg/kg, i.p.), as reference compound, were administered under the same experimental conditions.
Data were analyzed by comparing the treated groups with the control group using unpaired Student's t tests and are presented in Table 3.

The test system of experiment [2] is mouse. In words: Porsolt's Forced Swim Test after subchronic oral gavage. It counts as in vivo. Conditions: 32 mg/kg p.o., −24, −5, −1 h. The protocol: This test, which detects antidepressant activity, was performed in the same manner as that described in example 7, except that the route of administering the compound and the doses were different. Oregano extract 4 was evaluated at 3 doses (75, 150, and 300 mg/kg), administered orally (p.o.) 24, 5, and 1 hour before the test, and compared with a vehicle control group. The thus administered […] was dissolved in tocopherol-stripped corn oil “vehicle”). The control group was administered vehicle (p.o.), while imipramine (32 mg/kg, p.o.; dissolved in water) was administered to a separate group as reference compound, 24, 5 and 1 h prior to the test.
Mice were individually placed in cylinders (Height=24.5 cm, Diameter=19.5 cm) containing 13.5 cm water (22° C.) from which they could not escape. The mice were placed in the water for 6 minutes, automatically viewed via a video camera and monitored by a commercially available software system (VideoMot2, TSE Systems GmbH, Germany), and the duration of immobility during the last 4 minutes was measured.
10 mice were studied per each of the five groups. Data were analyzed by comparing the treated groups and the positive control group with the vehicle group using Analysis of Variance (ANOVA) and the Bonferroni post-hoc test.

Experiment [3] has as its target T1, human serotonin re-uptake transporter (hSERT) (Homo sapiens, UniProt P31645).
T1 construct: host or cells: HEK-293
In words: Serotonin uptake inhibition in HEK-293 cells expressing hSERT. The format is cell-based. The conditions noted are these: single compounds; transfected HEK-293 cells, 20 nM 3H-serotonin, 30 minutes; read-out: IC50 for tritiated serotonin uptake. The method, then: HEK-293 cells stably expressing the human serotonin re-uptake transporter (hSERT) were obtained from R. Blakely, Vanderbilt University, USA. The cells were routinely grown in Dulbecco's Modified Eagle's Medium, purchased from Bioconcept, Allschwil, Switzerland containing 10% fetal calf serum, penicillin, streptomycin, L-glutamine and the antibiotic G418 and passaged by trypsinisation. 1 day prior to the assay cells were seeded in the above mentioned medium. […] Serotonin uptake into the cells was determined by addition of radio-labeled (3H) serotonin (Amersham Biosciences GE Healthcare, Slough, UK) to a concentration of 20 nM, and incubation for 30 minutes at room temperature. Following removal of unincorporated label by gentle washing three times with the above buffer, incorporated serotonin was quantified by liquid scintillation counting.

Experiment [4] concerns the target T2, human dopamine transporter (hDAT) (Homo sapiens, UniProt Q01959).
T2 construct: expressed in transfected cells; host or cells: CHO-Ki (CHO-K1)
The format is cell-based. Conditions: transfected CHO-Ki cells, 50 nM [3H]Dopamine; n = 2; read-out: IC50 for inhibition of dopamine reuptake. The method, then:
CHO-Ki/hDAT cells expressing the human dopamine transporter (hDAT) were plated before the assay. Cells (2×10^5/ml) were incubated with oregano extract and/or vehicle in modified Tris-HEPES buffer pH 7.1 at 25° C. for 20 minutes before addition of 50 nM [^3H]Dopamine for 10 minutes. Specific signal was determined in the presence of 10 μM nomifensine. Cells were then solubilized with 1% SDS lysis buffer. Reduction of [^3H]Dopamine uptake by 50 percent or more (≧50%) relative to vehicle controls indicates significant inhibitory activity.

T1 sequence (P31645 whole entry): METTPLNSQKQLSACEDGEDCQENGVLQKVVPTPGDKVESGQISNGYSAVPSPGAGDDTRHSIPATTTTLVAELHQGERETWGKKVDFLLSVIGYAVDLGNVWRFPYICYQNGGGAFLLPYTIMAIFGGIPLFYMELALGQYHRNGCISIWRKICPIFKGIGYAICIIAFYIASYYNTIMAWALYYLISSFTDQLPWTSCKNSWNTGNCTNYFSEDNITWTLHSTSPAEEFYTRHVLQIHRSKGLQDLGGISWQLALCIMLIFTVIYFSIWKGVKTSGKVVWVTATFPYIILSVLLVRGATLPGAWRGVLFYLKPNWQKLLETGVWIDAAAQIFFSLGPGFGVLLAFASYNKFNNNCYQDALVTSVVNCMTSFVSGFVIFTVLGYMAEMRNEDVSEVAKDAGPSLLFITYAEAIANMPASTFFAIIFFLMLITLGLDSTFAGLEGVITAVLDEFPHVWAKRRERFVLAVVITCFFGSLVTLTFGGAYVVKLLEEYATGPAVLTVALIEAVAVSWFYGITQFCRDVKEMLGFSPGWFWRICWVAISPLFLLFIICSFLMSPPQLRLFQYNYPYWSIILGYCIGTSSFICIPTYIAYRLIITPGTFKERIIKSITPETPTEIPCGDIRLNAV
T2 sequence (Q01959 whole entry): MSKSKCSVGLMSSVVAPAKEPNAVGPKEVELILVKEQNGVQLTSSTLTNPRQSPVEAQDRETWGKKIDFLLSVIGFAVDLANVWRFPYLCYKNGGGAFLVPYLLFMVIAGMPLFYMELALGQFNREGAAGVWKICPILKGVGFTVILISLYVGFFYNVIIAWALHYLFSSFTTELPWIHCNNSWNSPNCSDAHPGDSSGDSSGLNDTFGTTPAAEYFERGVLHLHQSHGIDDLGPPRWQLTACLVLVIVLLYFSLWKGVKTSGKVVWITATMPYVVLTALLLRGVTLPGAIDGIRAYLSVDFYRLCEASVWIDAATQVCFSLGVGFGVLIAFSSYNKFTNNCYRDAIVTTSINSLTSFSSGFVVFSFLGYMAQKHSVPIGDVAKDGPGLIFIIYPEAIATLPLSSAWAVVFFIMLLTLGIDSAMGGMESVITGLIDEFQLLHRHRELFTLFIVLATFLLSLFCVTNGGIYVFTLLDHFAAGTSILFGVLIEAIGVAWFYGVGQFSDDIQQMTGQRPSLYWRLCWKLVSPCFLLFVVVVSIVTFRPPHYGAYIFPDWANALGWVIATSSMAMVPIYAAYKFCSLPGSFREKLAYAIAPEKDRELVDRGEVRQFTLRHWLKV

As to `CN(C)CCCN1c2ccccc2CCc2ccccc21` [Imipramine], the entries for the “DURATION OF IMMOBILITY % change from control” value in experiment [1] and in experiment [2] were −70% and −50%, respectively. In addition, the entries for the “DURATION OF IMMOBILITY (s) Mean ± s.e.m.” value in experiment [1] and in experiment [2] (10 mice) were 49.7 ± 7.9 s and 64.59 ± 8.26 s, respectively.

`Cc1cc(O)c(C(C)C)cc1O` [Thymoquinol]: the half-inhibitory concentration (IC50) turned out to be 26.6 µM in experiment [3] and 65.6 ± 1.2 µM in experiment [4].

Take `Cc1ccc(C(C)C)c(O)c1` [Thymol]: the IC50 in experiment [3] stood at 5 µM.
